# Legend:
# [1] = Dyes that are stabilized by the additive TPABr: t½ in 1xTAPS buffer; settings: 1xTAPS pH 8.2, with or without 14.6 mM TPABr; transillumination at 300 nm
# [2] = Dye stabilization in gels: GelStar-prestained agarose gels with additives, 6 days at 45° C., intensity of a 2.5 ng DNA band; type: physicochemical; settings: GelStar in gel, 6 days in the dark
# Protocol: SeaKem LE agarose gels (1% w/v, BMA Inc) were cast in 1×TAPS buffer (3-(N-tris(hydroxymethyl)methylamino)-propanesulfonic acid, 40 mM) in the presence of 1×GelStar nucleic acid stain (BMA Inc) and additives indicated in Table 1. Gels were incubated in the dark for 6 days at 45° C., and tested for the detection of DNA as follows: Gels were submerged in 1×TAPS electrophoresis buffer without dye. Then DNA was electrophoresed through the gel at 20 V/cm for one hour. The intensity of a 2.5 ng DNA band was examined by transillumination at 300 nm. The stain in the gel was considered stabilized if the fluorescence intensity of the DNA was more than 80% compared to when the gel was freshly prepared with stain. […] The quality of DNA resolution in fresh gels were recorded as “Good” when the DNA band was sharp, “Fair” when the DNA band was broad, and “Poor” when the DNA band was fuzzy.
# [3] = buffer, pH 8.2
# [4] = Dye stabilization in solution: t½ of fluorescence intensity with lambda DNA; settings: Table 3
compound,measurement,setting,value
CC[n+]1c(-c2ccccc2)c2cc(N)ccc2c2ccc(N)cc21 [ethidium bromide],effect of TPABr on the stability,[1],marginal
"CCCC[N+](CCCC)(CCCC)CCCC.[OH-] [Tetrabutylammonium hydroxide (TBAOH), Tetrabutylammonium hydroxide]",Dye stabilization at 45° C.,[2]; additive 14.6 mM,Yes (The stain in the gel was considered stabilized if the fluorescence intensity of the DNA was more than 80% compared to when the gel was freshly prepared with stain)
"CN1CCN(c2ccc3[nH]c(-c4ccc5[nH]c(-c6ccc(O)cc6)nc5c4)nc3c2)CC1 [Hoechst 33258, Hoechst 33258 pentahydrate (bis-benzimide: BisBnz]",effect of TPABr on the stability,[1],marginal
"CCCCC[N+](CCCCC)(CCCCC)CCCCC.[OH-] [TPAOH, Tetrapentylammonium hydroxide]",Dye stabilization at 45° C.,[2]; additive 7.3 mM,Yes (The stain in the gel was considered stabilized if the fluorescence intensity of the DNA was more than 80% compared to when the gel was freshly prepared with stain)
same,Dye stabilization at 45° C.,[2]; additive 14.6 mM,Yes (The stain in the gel was considered stabilized if the fluorescence intensity of the DNA was more than 80% compared to when the gel was freshly prepared with stain)
Tween-20,Dye stabilization at 45° C.,[2]; additive 0.1% (v/v),No
CCCCCCCCCCCC[N+](C)(C)C.[Br-] [Dodecyltrimethylammonium bromide],Dye stabilization at 45° C.,[2]; additive 28 mM,No
CCCN(CCCN(C)C)c1cc(/C=C2/Sc3ccccc3N2C)c2ccccc2[n+]1-c1ccccc1 [SYBR Green I],t½ with TPABr,[3],over 100 days
same,t½ without TPABr,[3],5 days
same,increase of half-life by tetramethylammonium hydroxide alone,[4],4 fold

# From patent US6365341B1, “Stabilization of highly sensitive nucleic acid stains in aqueous solutions” (priority 2000, dated 2002)
